Measurements from ChEMBL document CHEMBL5143551, “Synthesis of sp3-rich chiral bicyclo[3.3.1]nonanes for chemical space expansion and study of biological activities” (Bioorg Med Chem, 2022).
Activity calls are given as the source filed them. The rule behind the calls is not given here.

Legend:
[1] = Inhibition of HIF-1 transcriptional activity in human HeLa cells transfected with hypoxia response element-dependent luciferase reporter gene under hypoxic conditions; assay type: cell-based
HeLa [2] = experiment: Growth inhibition of human HeLa cells by MTT assay; assay type: functional, cell-based
HeLa [3] = experiment: Inhibition of HIF-1-alpha protein expression in human HeLa cells at 100 uM by Western blot analysis; assay type: functional, cell-based
HeLa [4] = experiment: Inhibition of HIF-1-alpha mRNA expression in human HeLa cells under hypoxia conditions at 100 uM by qPCR analysis; assay type: functional, cell-based
HeLa [5] = experiment: Inhibition of HIF-1 transcriptional signaling in human HeLa cells assessed as reduction in CA9 protein expression at 100 uM under hypoxia conditions by Western blot analysis; assay type: cell-based

CC(C)CC(=O)O[C@@H]1CC[C@@]2(OC(=O)Cc3ccccc3)CC1[C@@H](NCc1ccccc1)[C@@H]1O[C@@H]12
IC50 ([1]; Homo sapiens, HeLa): 31 µM | IC50 (HeLa [2]; Homo sapiens, HeLa): 39.5 µM

CC(C)CN[C@@H]1C2C[C@](OC(=O)Cc3ccccc3)(CC[C@H]2OC(=O)CC(C)C)[C@H]2O[C@@H]12 (stereo in doubt; 16f) [listing 1 of 2 here]
IC50 ([1]; hela): 19 µM | IC50 (HeLa [2]; hela): 76.1 µM

CC(C)CN[C@@H]1C2C[C@](OC(=O)Cc3ccccc3)(CC[C@H]2OC(=O)CC(C)C)[C@H]2O[C@@H]12 (stereo in doubt; 16f) [listing 2 of 2 here]
inhibition (HeLa [3]): Active | inhibition (HeLa [4]): Active | inhibition (HeLa [5]): Active

CC(C)CN[C@@H]1C2C[C@](OC(=O)CC(C)C)(CC[C@H]2OC(=O)Cc2ccccc2)[C@H]2O[C@@H]12
inhibition (HeLa [3]): Active | inhibition (HeLa [5]): Active | IC50 ([1]; Homo sapiens, HeLa): 20.4 µM | IC50 (HeLa [2]; Homo sapiens, HeLa): 89.1 µM

CC(C)CN[C@@H]1C2C[C@](OC(=O)Cc3ccccc3)(CC[C@H]2OC(=O)CC(C)C)[C@H]2O[C@@H]12 (stereo in doubt)
IC50 ([1]; hela): 46.4 µM | IC50 (HeLa [2]; hela): 32.3 µM

CC(C)CN[C@@H]1C2C[C@](OC(=O)CC(C)C)(CC[C@H]2OC(=O)CC(C)C)[C@H]2O[C@@H]12
inhibition (HeLa [3]): Active | inhibition (HeLa [5]): Active | IC50 ([1]; Homo sapiens, HeLa): 21.7 µM | IC50 (HeLa [2]; Homo sapiens, HeLa): 79.6 µM

CC(C)CC(=O)O[C@@H]1CC[C@@]2(OC(=O)CC(C)C)CC1[C@@H](NCc1ccccc1)[C@@H]1O[C@@H]12
IC50 ([1]; Homo sapiens, HeLa): 24.7 µM | IC50 (HeLa [2]; Homo sapiens, HeLa): 9.4 µM

O=C(Cc1ccccc1)O[C@@H]1CC[C@@]2(OC(=O)Cc3ccccc3)CC1[C@@H](NCc1ccccc1)[C@@H]1O[C@@H]12 (mixture of isomers)
IC50 ([1]; Homo sapiens, HeLa): 19.5 µM | IC50 (HeLa [2]; Homo sapiens, HeLa): 14.2 µM

CC(C)CN[C@@H]1C2C[C@](OC(=O)Cc3ccccc3)(CC[C@H]2OC(=O)Cc2ccccc2)[C@H]2O[C@@H]12
IC50 ([1]; Homo sapiens, HeLa): 31.7 µM | IC50 (HeLa [2]; Homo sapiens, HeLa): > 100 µM

CC(C)CC(=O)O[C@]12CC[C@@H](OC(=O)Cc3ccccc3)C(C1)[C@@H](NCc1ccccc1)[C@@H]1O[C@@H]12 (mixture of isomers)
IC50 ([1]; Homo sapiens, HeLa): 17.2 µM | IC50 (HeLa [2]; Homo sapiens, HeLa): 3.5 µM
